This note sets out measurements from patent publication US8450319B2, “Pyrrolopyridazinone compound” (Ube Industries, Ltd., priority 2006, dated 2013).

The melting point is the temperature, or range, at which the solid turns liquid.

Where a name gives a salt, the structure may show the parent alone.

As to `COc1cccc(Cc2c(-c3ccc(OC(F)F)c(OC4CC4)c3)[nH]c3cn[nH]c(=O)c23)n1` [Example 28, 2-(3-Cyclopropoxy-4-difluoromethoxyphenyl)-3-(6-methoxy-2-pyridylmethyl)-1,5-dihydropyrrolo[2,3-d]pyridazin-4-one], the melting point fell in the range of 224 to 226 °C.
With `O=c1[nH]ncc2[nH]c(-c3ccc(OC(F)F)c(OC4CC4)c3)c(Cl)c12` [Example 2, 3-Chloro-2-(3-cyclopropoxy-4-difluoromethoxyphenyl)-1,5-dihydropyrrolo[2,3-d]pyridazin-4-one] the figure was 281 to 283 °C; with `O=c1[nH]ncc2[nH]c(-c3ccc(OC(F)F)c(OC4CCC4)c3)c(Cl)c12` [Example 32, 3-Chloro-2-(3-cyclobutoxy-4-difluoromethoxyphenyl)-1,5-dihydropyrrolo[2,3-d]pyridazin-4-one], 273 to 275 °C.
With `CC(C)(C)OCc1c(-c2ccc(OC(F)F)c(OC3CC3)c2)[nH]c2cn[nH]c(=O)c12` [Example 64, 3-(tert-Butoxymethyl)-2-(3-cyclopropoxy-4-difluoromethoxyphenyl)-1,5-dihydropyrrolo[2,3-d]pyridazin-4-one] the figure was > 300 °C; with `O=c1[nH]ncc2[nH]c(-c3ccc(OC(F)F)c(OC4CC4)c3)c(Cc3cccc(F)c3)c12` [Example 23, 2-(3-Cyclopropoxy-4-difluoromethoxyphenyl)-3-(3-fluorobenzyl)-1,5-dihydropyrrolo[2,3-d]pyridazin-4-one], 208 to 210 °C.
For `O=C(O)c1cccc(Cc2c(-c3ccc(OC(F)F)c(OC4CC4)c3)[nH]c3cn[nH]c(=O)c23)c1` [Example 27, 3-(3-Carboxybenzyl)-2-(3-cyclopropoxy-4-difluoromethoxyphenyl)-1,5-dihydropyrrolo[2,3-d]pyridazin-4-one] the value was 155 to 163 °C; for `COc1ccc(-c2cc3c(=O)[nH]ncc3[nH]2)cc1OC1CCCC1` [Example 46, 2-(3-Cyclopentoxy-4-methoxyphenyl)-1,5-dihydropyrrolo[2,3-d]pyridazin-4-one], 290 °C (dec.).
For `N#Cc1ccccc1Cc1c(-c2ccc(OC(F)F)c(OC3CC3)c2)[nH]c2cn[nH]c(=O)c12` [Example 25, 3-(2-Cyanobenzyl)-2-(3-cyclopropoxy-4-difluoromethoxyphenyl)-1,5-dihydropyrrolo[2,3-d]pyridazin-4-one], the melting point is > 300 °C.
With `O=c1[nH]ncc2[nH]c(-c3ccc(OC(F)F)c(OC4CC4)c3)c(CCC3CC3)c12` [Example 70, 2-(3-cyclopropoxy-4-difluoromethoxyphenyl)-3-(2-cyclopropylethyl)-1,5-dihydropyrrolo[2,3-d]pyridazin-4-one] the figure was 194 to 197 °C; with `C#CCc1c(-c2ccc(OC(F)F)c(OC3CC3)c2)[nH]c2cn[nH]c(=O)c12` [Example 71, 2-(3-Cyclopropoxy-4-difluoromethoxyphenyl)-3-(2-propynyl)-1,5-dihydropyrrolo[2,3-d]pyridazin-4-one], 245 to 246 °C.
`O=c1[nH]ncc2[nH]c(-c3ccc(OC(F)F)c(OC4CC4)c3)c(COCC3CC3)c12` [Example 59, 2-(3-Cyclopropoxy-4-difluoromethoxyphenyl)-3-cyclopropylmethoxymethyl-1,5-dihydropyrrolo[2,3-d]pyridazin-4-one] yielded a melting point of 170 to 172 °C.
With `O=c1[nH]ncc2[nH]c(-c3ccc(OC(F)F)c(OC4CC4)c3)cc12` [Example 1, 2-(3-Cyclopropoxy-4-difluoromethoxyphenyl)-1,5-dihydropyrrolo[2,3-d]pyridazin-4-one] the figure was 287 to 292 °C; with `CCCc1c(-c2ccc(OC(F)F)c(OC3CC3)c2)[nH]c2cn[nH]c(=O)c12` [Example 6, 2-(3-Cyclopropoxy-4-difluoromethoxyphenyl)-3-propyl-1,5-dihydropyrrolo[2,3-d]pyridazin-4-one], 208 to 210 °C.
For `O=c1[nH]ncc2[nH]c(-c3ccc(OC(F)F)c(OC4CC4)c3)c(-c3ccccc3)c12` [Example 17, 2-(3-Cyclopropoxy-4-difluoromethoxyphenyl)-3-phenyl-1,5-dihydropyrrolo[2,3-d]pyridazin-4-one] the value was 138 to 143 °C; for `O=c1[nH]ncc2[nH]c(-c3ccc(OC(F)F)c(OC4CC4)c3)c(Cc3ccc(F)cc3)c12` [Example 24, 2-(3-Cyclopropoxy-4-difluoromethoxyphenyl)-3-(4-fluorobenzyl)-1,5-dihydropyrrolo[2,3-d]pyridazin-4-one], 193 to 195 °C; for `COc1ccc(-c2[nH]c3cn[nH]c(=O)c3c2Cl)cc1OC1CCC1` [Example 45, 3-Chloro-2-(3-cyclobutoxy-4-methoxyphenyl)-1,5-dihydropyrrolo[2,3-d]pyridazin-4-one], 285 to 287 °C.
Turning to `COc1ccc(-c2[nH]c3cn[nH]c(=O)c3c2Br)cc1OC1CC1` [Example 43, 3-Bromo-2-(3-cyclopropoxy-4-methoxyphenyl)-1,5-dihydropyrrolo[2,3-d]pyridazin-4-one], the melting point is 293 to 296 °C (dec.).
For `N#Cc1cccc(Cc2c(-c3ccc(OC(F)F)c(OC4CC4)c3)[nH]c3cn[nH]c(=O)c23)c1` [Example 26, 3-(3-Cyanobenzyl)-2-(3-cyclopropoxy-4-difluoromethoxyphenyl)-1,5-dihydropyrrolo[2,3-d]pyridazin-4-one] the value was 130 to 135 °C; for `COc1ccc(-c2[nH]c3cn[nH]c(=O)c3c2Cl)cc1OCC1CC1` [Example 47, 3-Chloro-2-(3-cyclopropylmethoxy-4-methoxyphenyl)-1,5-dihydropyrrolo[2,3-d]pyridazin-4-one], 256 to 258 °C.
For `O=c1[nH]ncc2[nH]c(-c3ccc(OC(F)F)c(OC4CC4)c3)c(CO)c12` [Example 10, 2-(3-Cyclopropoxy-4-difluoromethoxyphenyl)-3-hydroxymethyl-1,5-dihydropyrrolo[2,3-d]pyridazin-4-one] the value was 190 to 191 °C.
For `CCC(C)OCc1c(-c2ccc(OC(F)F)c(OC3CC3)c2)[nH]c2cn[nH]c(=O)c12` (stereo not drawn) [Example 63, 3-(sec-Butoxymethyl)-2-(3-cyclopropoxy-4-difluoromethoxyphenyl)-1,5-dihydropyrrolo[2,3-d]pyridazin-4-one] the value was 103 to 106 °C; for `COc1ccc(-c2[nH]c3cn[nH]c(=O)c3c2Cl)cc1OC1CC1` [Example 42, 3-Chloro-2-(3-cyclopropoxy-4-methoxyphenyl)-1,5-dihydropyrrolo[2,3-d]pyridazin-4-one], 293 to 294 °C; for `CCc1c(-c2ccc(OC(F)F)c(OCC3CC3)c2)[nH]c2cn[nH]c(=O)c12` (as salt: HCl) [Example 37, 2-(3-Cyclopropylmethoxy-4-difluoromethoxyphenyl)-3-ethyl-1,5-dihydropyrrolo[2,3-d]pyridazin-4-one HCl adduct], 224 to 227 °C.
As for `O=c1[nH]ncc2[nH]c(-c3ccc(OC(F)F)c(OC4CC4)c3)c(-c3cn[nH]c3)c12` [Example 18, 2-(3-Cyclopropoxy-4-difluoromethoxyphenyl)-3-(4-pyrazolyl)-1,5-dihydropyrrolo[2,3-d]pyridazin-4-one], the melting point lay in the range of 294 to 297 °C.
